Test results taken from patent US11141403B2, “Benzimidazoles and indoles as taro inhibitors” (MERCK SHARP & DOHME CORP., priority 2015, dated 2021).
Where “and” joins values, the source holds several entries; their conditions need not be identical. Equal values may be shown once.

Tests used:
MRSA COL (MB 5393) = assay: In Vivo Murine Systemic Infection Model; parameters: species or system Staphylococcus aureus; conditions: for Bacteria recovered: tid, neutropenic Balb/C mice, 24 h post challenge; for Fold reduction vs. vehicle alone: kidney cfu
Procedure: The murine systemic infection model determines the therapeutic efficacy of TarO inhibitor/β-lactam combinations in vivo. Staphylococci bacteria can cause a systemic infection and establish a robust growth in the kidneys of the infected animal. MRSA COL can establish an infection even in the presence of β-lactam antibiotic due MRSA COL resistance to β-lactam antibiotics.
Female Balb/C mice were rendered neutropenic (immune suppressed) with a single 250 mg/kg intraperitoneal (ip) dose of cyclophosphamide on […]. MRSA COL (MB 5393) was grown for 16 hours in trypticase soy broth (TSB) at 37° C. and 0.5 mL of diluted culture (˜1×10^4 cfu) was administered intraperitoneal (IP). The TarO inhibitor and β-lactam antibiotic were administered alone or in combination by subcutaneous route at 2, 5 and 8 hr. post challenge (sc, tid). Twenty four hours post challenge mice were euthanized and the kidneys harvested, weighed, homogenized and plated to measure the total number of bacteria recovered as colony forming unit (CFU) remaining in compound treated groups as compared to vehicle (saline) or β-lactam antibiotic alone groups (statistical analyses was determined by one way ANOVA).

MRSA COL (MB5393) = assay: TarO Inhibitor/β-Lactam Synergy Assay; format: cell-based, Staphylococcus aureus; conditions: 20 hours; for IC95: Staphylococcus aureus, TarO inhibitor alone, OD600, 95% growth inhibition, read-out: MITC95 TarO inhibitor alone, Bacteria: SA_MB5393; for MITC95 TarO inhibitor + 4 μg/mL IPM; Bacteria: SA_MB5393: in combination with 4 μg/mL imipenem; for MITC95 TarO inhibitor + 4 μg/mL IPM; Bacteria: SA_MB5393 / MITC95 TarO inhibitor + 8 μg/mL DCX; Bacteria: SA_MB5393: OD600; for MITC95 TarO inhibitor + 8 μg/mL DCX; Bacteria: SA_MB5393: in combination with 8 μg/mL dicloxacillin
Procedure: The TarO inhibitor/β-lactam synergy assay was performed to measure the re-sensitization of methicillin-resistant Staphylococci bacteria (MB5393: MRSA COL) to β-lactam antibiotics by TarO inhibitors. MRSA COL is a hospital-acquired penicillinase-negative clinically isolated strain commonly used in Staphylococcus aureus studies and is fully resistant to the antimicrobial bioactivity of β-lactam antibiotics, including but not limited to imipenem and dicloxacillin. […] MRSA COL is fully refractory to β-lactam antibiotic effect at the current clinical breakpoint concentrations and as such MRSA COL is fully viable at these concentrations.
The β-lactam antibiotic concentration was fixed at the clinical breakpoint (imipenem 4 μg/ml or dicloxacillin 8 μg/ml) and the TarO inhibitors were titrated by 2 fold starting from the highest concentration of 200 μM with final DMSO concentration of 2% in the assay. 5×10^5 colony forming unit of MRSA COL in cation-adjusted Mueller Hinton broth (CAMHB) was then mixed and the assay plate was incubated for 20 hours at 37° C. without shaking. After 20 hours, the optical density at 600 nm (OD600) was read for all wells to determine relative growth of MRSA COL.

| SMILES | Bacteria recovered (MRSA COL (MB 5393); Imipenem alone (5 mg/kg) sc) | Fold reduction vs. vehicle alone (MRSA COL (MB 5393); Imipenem alone (5 mg/kg)) | IC95 (MRSA COL (MB5393)) [µM] | MITC95 TarO inhibitor + 4 μg/mL IPM; Bacteria: SA_MB5393 (MRSA COL (MB5393)) [µM] | MITC95 TarO inhibitor + 8 μg/mL DCX; Bacteria: SA_MB5393 (MRSA COL (MB5393)) [µM] | Bacteria recovered (MRSA COL (MB 5393); Example 37 (100 mg/kg) + imipenem (5 mg/kg) sc) | Fold reduction vs. vehicle alone (MRSA COL (MB 5393); Example 37 (100 mg/kg) + imipenem (5 mg/kg)) | Bacteria recovered (MRSA COL (MB 5393); Example 37 alone (100 mg/kg) sc) | Fold reduction vs. vehicle alone (MRSA COL (MB 5393); Example 37 alone (100 mg/kg)) |
| --- | --- | --- | --- | --- | --- | --- | --- | --- | --- |
| C[C@@H](O)[C@H]1C(=O)N2C(C(=O)O)=C(SCCN=CN)C[C@H]12 [imipenem, reference compound] | 1.0 × 10^6 cfu/g kidney | 19 |  |  |  |  |  |  |  |
| CCN(C(=O)CCn1c(C2CCCN(c3nccc(C)n3)C2)nc2ccccc21)C1CCCCC1 (stereo not drawn) [Example 52, N-cyclohexyl-N-ethyl-3-{2-[1-(4-methylpyrimidin-2-yl)piperidin-3-yl]-1H-benzimidazol-1-yl}propanamide] |  |  | 100 | 1.56 | 6.25 |  |  |  |  |
| CCN(C(=O)CCn1c(C2CCCN(C(=O)OC(C)C)C2)nc2ccccc21)C1CCCCC1 (stereo not drawn) [Example 53, 1-methylethyl 3-(1-{3-[cyclohexyl(ethyl)amino]-3-oxopropyl}-1H-benzimidazol-2-yl)piperidine-1-carboxylate] |  |  | 100 | 1.56 | 6.25 |  |  |  |  |
| CN(C(=O)CCn1c(C2CCCCC2)nc2ccccc21)C1CCCCC1 [Example 39, N-cyclohexyl-3-(2-cyclohexyl-1H-benzimidazol-1-yl)-N-methylpropanamide] |  |  | > 200 | 4.69 | 12.50 |  |  |  |  |
| CCN(C(=O)CCn1c(-c2ccc(-n3ccnn3)cc2)nc2ccccc21)C1CCCCC1 [Example 42, N-cyclohexyl-N-ethyl-3-{2-[4-(1H-1,2,3-triazol-1-yl)phenyl]-1H-benzimidazol-1-yl}propanamide] |  |  | > 200 | 18.75 | 25.00 |  |  |  |  |
| CCN(C(=O)CCn1c2cnccc2nc1[C@H]1CC[C@H](CC)CC1)C1CCCCC1 [Example 4, N-cyclohexyl-N-ethyl-3-[2-(trans-4-ethylcyclohexyl)-3H-imidazo[4,5-c]pyridin-3-yl]propanamide] |  |  | > 200 | 4.17 | 41.67 |  |  |  |  |
| CCN(C(=O)CCn1c(-c2ccc(OCC(F)(F)F)cc2)nc2ccccc21)C1CCCCC1 [Example 34, N-cyclohexyl-N-ethyl-3-{2-[4-(2,2,2-trifluoroethoxy)phenyl]-1H-benzimidazol-1-yl}propanamide] |  |  | > 200 | 0.25 | 0.54 |  |  |  |  |
| CC1(C)[C@@H]2CC[C@@]1(C)[C@H](NC(=O)CCn1c(C3CCCCC3)nc3ccccc31)C2 [Example 37, 3-(2-cyclohexyl-1H-benzimidazol-1-yl)-N-[(1R,2R,4R)-1,7,7-trimethylbicyclo[2.2.1]hept-2-yl]propanamide] |  |  | > 200 | 1.69 | 12.50 | 2.6×10^4 cfu/g kidney | 730 and 730.8 | 1.5×10^7 cfu/g kidney | 1.3 |
| CCN(C(=O)CCn1c2cc(CN)ccc2nc1[C@H]1CC[C@H](CC)CC1)C1CCCCC1 [Example 27, 3-[6-(aminomethyl)-2-(trans-4-ethylcyclohexyl)-1H-benzimidazol-1-yl]-N-cyclohexyl-N-ethylpropanamide] |  |  | > 200 | 37.50 | 50 |  |  |  |  |
| CCN(C(=O)CCn1c2cc(CN3CC(F)(F)C3)ccc2nc1[C@H]1CC[C@H](CC)CC1)C1CCCCC1 [Example 31, N-cyclohexyl-3-{6-[(3,3-difluoroazetidin-1-yl)methyl]-2-(trans-4-ethylcyclohexyl)-1H-benzimidazol-1-yl}-N-ethylpropanamide] |  |  | > 200 | 6.25 | 50 |  |  |  |  |
| CCN(C(=O)CCn1c2cc(Br)ccc2nc1[C@H]1CC[C@H](CC)CC1)C1CCCCC1 [Example 8, 3-[6-bromo-2-(trans-4-ethylcyclohexyl)-1H-benzimidazol-1-yl]-N-cyclohexyl-N-ethylpropanamide] |  |  | > 200 | 0.06 | 0.22 |  |  |  |  |
| CCN(C(=O)CCn1c(C2CCCN(C(=O)OC(C)(C)C)C2)nc2cc(F)ccc21)C1CCCCC1 (stereo not drawn) [Example 12, tert-butyl 3-(1-{3-[cyclohexyl(ethyl)amino]-3-oxopropyl}-5-fluoro-1H-benzimidazol-2-yl)piperidine-1-carboxylate] |  |  | > 200 | 0.50 | 1.09 |  |  |  |  |
| CCN(C(=O)CCn1c2ccc(C(F)(F)F)cc2nc1[C@H]1CC[C@H](CC)CC1)C1CCCCC1 [Example 7, N-cyclohexyl-N-ethyl-3-[2-(trans-4-ethylcyclohexyl)-5-(trifluoromethyl)-1H-benzimidazol-1-yl]propanamide] |  |  | > 200 | 0.20 | 0.20 |  |  |  |  |
| CCN(C(=O)CCn1c2cc(CO)ccc2nc1[C@H]1CC[C@H](CC)CC1)C1CCCCC1 [Example 14, N-cyclohexyl-N-ethyl-3-[2-(trans-4-ethylcyclohexyl)-6-(hydroxymethyl)-1H-benzimidazol-1-yl]propanamide] |  |  | > 200 | 0.52 | 3.13 |  |  |  |  |
| CCC1CCN(Cc2nc3cc(C)ccc3n2CCC(=O)N(CC)C2CCCCC2)CC1 [Example 61, N-cyclohexyl-N-ethyl-3-{2-[(4-ethylpiperidin-1-yl)methyl]-5-methyl-1H-benzimidazol-1-yl}propanamide] |  |  | 50 | 6.25 | 25 |  |  |  |  |
| CCN(C(=O)CCn1c2cc(-c3ccccc3)ccc2nc1[C@H]1CC[C@H](CC)CC1)C1CCCCC1 [Example 24, N-cyclohexyl-N-ethyl-3-(2-(trans-4-ethylcyclohexyl)-6-phenyl-1H-benzo[d]imidazol-1-yl)propanamide] |  |  | > 200 | 0.04 | 0.46 |  |  |  |  |
